Assay results from ChEMBL document CHEMBL1909046, “DrugMatrix in vitro pharmacology data”.

Tests used:
[1] = biological target: Carbonic anhydrase 2 (Homo sapiens, UniProt P00918); assay: DRUGMATRIX: Carbonic Anhydrase II enzyme inhibition (substrate: 4-Nitrophenyl acetate (4-NPA)); assay type: tissue-based, Erythrocyte; conditions: erythrocyte; Not Active = under 50% inhibition at 10 µM
[2] = biological target: Vascular endothelial growth factor receptor 1 (Homo sapiens, UniProt P17948); assay type: cell-based; conditions: huvec; also: in other assays of this panel Not Active means under 50% inhibition at 10 µM
Sequence of Vascular endothelial growth factor receptor 1 (P17948 whole entry): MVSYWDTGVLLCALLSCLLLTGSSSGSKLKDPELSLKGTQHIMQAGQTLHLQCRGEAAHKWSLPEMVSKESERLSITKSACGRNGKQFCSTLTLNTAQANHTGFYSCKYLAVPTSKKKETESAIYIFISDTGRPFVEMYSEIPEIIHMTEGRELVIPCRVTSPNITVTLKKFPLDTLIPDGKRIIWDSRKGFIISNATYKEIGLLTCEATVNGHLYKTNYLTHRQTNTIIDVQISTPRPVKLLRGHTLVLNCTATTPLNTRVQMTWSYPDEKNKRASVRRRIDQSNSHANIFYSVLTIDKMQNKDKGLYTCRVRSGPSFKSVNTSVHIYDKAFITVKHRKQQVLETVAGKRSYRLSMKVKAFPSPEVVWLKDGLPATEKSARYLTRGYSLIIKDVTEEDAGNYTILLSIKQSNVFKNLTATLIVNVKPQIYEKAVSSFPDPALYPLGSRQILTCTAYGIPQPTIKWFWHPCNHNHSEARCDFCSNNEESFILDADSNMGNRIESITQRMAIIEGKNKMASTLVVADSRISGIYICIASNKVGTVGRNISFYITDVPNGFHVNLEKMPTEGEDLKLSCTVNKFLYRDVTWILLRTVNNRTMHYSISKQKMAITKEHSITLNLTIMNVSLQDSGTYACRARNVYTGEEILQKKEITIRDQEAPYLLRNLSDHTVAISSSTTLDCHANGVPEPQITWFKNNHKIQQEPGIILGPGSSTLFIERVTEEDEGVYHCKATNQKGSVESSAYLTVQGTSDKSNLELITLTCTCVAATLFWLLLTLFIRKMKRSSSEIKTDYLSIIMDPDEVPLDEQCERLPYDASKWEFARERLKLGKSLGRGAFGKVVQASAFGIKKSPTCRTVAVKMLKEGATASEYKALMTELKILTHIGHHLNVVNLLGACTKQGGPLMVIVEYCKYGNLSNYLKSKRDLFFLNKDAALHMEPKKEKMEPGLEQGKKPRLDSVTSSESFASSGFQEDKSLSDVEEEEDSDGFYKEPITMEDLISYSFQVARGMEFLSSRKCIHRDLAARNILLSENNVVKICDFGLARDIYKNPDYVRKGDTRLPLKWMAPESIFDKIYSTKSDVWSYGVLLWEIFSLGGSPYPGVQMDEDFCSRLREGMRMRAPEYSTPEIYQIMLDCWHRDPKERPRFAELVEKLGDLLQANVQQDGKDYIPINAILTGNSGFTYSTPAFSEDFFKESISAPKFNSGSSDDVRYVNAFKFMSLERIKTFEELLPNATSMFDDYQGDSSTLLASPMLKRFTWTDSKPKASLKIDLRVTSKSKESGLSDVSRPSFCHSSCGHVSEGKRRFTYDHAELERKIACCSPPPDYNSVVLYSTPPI

[3] = biological target: T1, Endothelin-1 receptor (Homo sapiens, UniProt P25101); assay type: cell membranes, Membrane; conditions: cho-k1; also: in other assays of this panel Not Active means under 50% inhibition at 10 µM
T1 sequence (P25101 whole entry): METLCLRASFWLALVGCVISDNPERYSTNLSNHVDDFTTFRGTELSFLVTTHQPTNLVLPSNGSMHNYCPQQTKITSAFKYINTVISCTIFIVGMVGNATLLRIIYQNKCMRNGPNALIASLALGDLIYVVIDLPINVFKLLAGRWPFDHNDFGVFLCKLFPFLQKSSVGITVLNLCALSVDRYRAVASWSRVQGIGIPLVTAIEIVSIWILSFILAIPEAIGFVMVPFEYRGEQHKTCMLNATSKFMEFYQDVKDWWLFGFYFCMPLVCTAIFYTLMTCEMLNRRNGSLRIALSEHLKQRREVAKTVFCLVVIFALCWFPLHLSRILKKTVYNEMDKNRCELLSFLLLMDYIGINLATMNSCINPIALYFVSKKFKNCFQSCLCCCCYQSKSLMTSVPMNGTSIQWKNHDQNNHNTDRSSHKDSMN

[4] = biological target: Insulin receptor (Rattus norvegicus, UniProt P15127); assay type: cell membranes, Wistar, Liver, Membrane; also: in other assays of this panel Not Active means under 50% inhibition at 10 µM
Sequence of Insulin receptor (P15127 27-759 limits assumed): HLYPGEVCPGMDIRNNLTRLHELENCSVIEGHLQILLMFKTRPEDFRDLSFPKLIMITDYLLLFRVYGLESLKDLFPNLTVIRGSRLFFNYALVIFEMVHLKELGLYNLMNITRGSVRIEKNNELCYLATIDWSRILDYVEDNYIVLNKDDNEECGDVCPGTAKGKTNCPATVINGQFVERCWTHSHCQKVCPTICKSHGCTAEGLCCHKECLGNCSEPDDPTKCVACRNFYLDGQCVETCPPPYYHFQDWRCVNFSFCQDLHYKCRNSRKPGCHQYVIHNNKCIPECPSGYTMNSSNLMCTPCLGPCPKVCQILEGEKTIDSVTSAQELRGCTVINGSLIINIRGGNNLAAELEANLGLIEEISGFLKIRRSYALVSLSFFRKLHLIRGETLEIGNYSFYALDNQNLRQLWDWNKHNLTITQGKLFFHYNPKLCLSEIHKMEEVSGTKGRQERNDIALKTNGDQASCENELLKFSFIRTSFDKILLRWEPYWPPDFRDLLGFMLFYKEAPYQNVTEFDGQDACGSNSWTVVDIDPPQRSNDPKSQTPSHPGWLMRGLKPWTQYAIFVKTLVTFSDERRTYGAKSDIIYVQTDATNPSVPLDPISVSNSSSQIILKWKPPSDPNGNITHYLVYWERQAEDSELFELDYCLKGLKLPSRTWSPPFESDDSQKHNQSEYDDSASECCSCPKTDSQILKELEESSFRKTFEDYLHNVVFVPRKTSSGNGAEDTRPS
Sequence of Insulin receptor (P15127 764-1383 limits assumed): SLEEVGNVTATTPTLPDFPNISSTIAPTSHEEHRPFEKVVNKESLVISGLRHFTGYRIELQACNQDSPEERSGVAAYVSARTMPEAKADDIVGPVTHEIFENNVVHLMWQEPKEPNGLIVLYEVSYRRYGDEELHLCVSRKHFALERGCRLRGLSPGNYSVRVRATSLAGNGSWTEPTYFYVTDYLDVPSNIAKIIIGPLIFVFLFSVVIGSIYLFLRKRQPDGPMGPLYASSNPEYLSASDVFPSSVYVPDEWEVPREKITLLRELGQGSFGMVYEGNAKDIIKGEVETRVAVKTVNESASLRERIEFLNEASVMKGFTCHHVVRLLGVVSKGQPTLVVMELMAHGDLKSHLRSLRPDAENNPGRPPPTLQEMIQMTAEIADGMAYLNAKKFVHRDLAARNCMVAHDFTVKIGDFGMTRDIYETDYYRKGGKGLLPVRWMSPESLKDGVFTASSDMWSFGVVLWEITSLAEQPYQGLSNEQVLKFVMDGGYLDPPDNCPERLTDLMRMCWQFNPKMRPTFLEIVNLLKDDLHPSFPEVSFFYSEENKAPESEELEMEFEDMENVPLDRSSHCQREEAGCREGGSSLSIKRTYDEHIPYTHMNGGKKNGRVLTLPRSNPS

[5] = DRUGMATRIX: Calcium Channel Type L, Benzothiazepine radioligand binding (ligand: [3H] Diltiazem); assay type: cell membranes, Rattus norvegicus, Wistar, Brain, Membrane; conditions: Not Active = under 50% inhibition at 10 µM
[6] = DRUGMATRIX: Platelet-Derived Growth Factor (PDGF) radioligand binding (ligand: [125I] PDGF); assay type: cell-based; conditions: nih3t3; Not Active = under 50% inhibition at 10 µM
[7] = DRUGMATRIX: Tumor Necrosis Factor (TNF), Non-Selective radioligand binding (ligand: [125I] TNF-alpha); assay type: cell membranes, Membrane; conditions: u-937; Not Active = under 50% inhibition at 10 µM
[8] = DRUGMATRIX: beta-Lactamase enzyme inhibition (substrate: Nitrocefin); set-up: species or system Bacillus cereus; conditions: Not Active = under 50% inhibition at 10 µM

Cc1cc2c(s1)Nc1ccccc1N=C2N1CCN(C)CC1 [OLANZAPINE]
Not Active: IC50 [1] | IC50 [2] | IC50 [3] | IC50 [4]

CC1(C)[C@H](C(=O)O)N2C(=O)C[C@H]2S1(=O)=O [SULBACTAM]
Not Active: IC50 [5] | Ki [5] | IC50 [1] | IC50 [6] | Ki [6] | IC50 [7] | Ki [7] | IC50 [2] | IC50 [3] | IC50 [8] | Ki [8] | IC50 [4]

Oc1ccc(/C=C/c2cc(O)cc(O)c2)cc1 [RESVERATROL]
Not Active: IC50 [5] | Ki [5] | IC50 [1] | IC50 [6] | Ki [6] | IC50 [7] | Ki [7] | IC50 [2] | IC50 [3] | IC50 [8] | Ki [8] | IC50 [4]

O=C1CC[C@@]2(O)[C@H]3Cc4ccc(O)c5c4[C@@]2(CCN3CC2CC2)[C@H]1O5 [NALTREXONE]
Not Active: IC50 [5] | Ki [5] | IC50 [1] | IC50 [6] | Ki [6] | IC50 [7] | Ki [7] | IC50 [2] | IC50 [3] | IC50 [8] | Ki [8] | IC50 [4]

Cc1nnc(NS(=O)(=O)c2ccc(N)cc2)s1 [SULFAMETHIZOLE]
Not Active: IC50 [5] | Ki [5] | IC50 [1] | IC50 [6] | Ki [6] | IC50 [7] | Ki [7] | IC50 [2] | IC50 [3] | IC50 [8] | Ki [8] | IC50 [4]

C=CCc1ccc2c(c1)OCO2 [SAFROLE]
Not Active: IC50 [5] | Ki [5] | IC50 [1] | IC50 [6] | Ki [6] | IC50 [7] | Ki [7] | IC50 [2] | IC50 [3] | IC50 [8] | Ki [8] | IC50 [4]

Cc1cn([C@H]2C=C[C@@H](CO)O2)c(=O)[nH]c1=O [STAVUDINE]
Not Active: IC50 [5] | Ki [5] | IC50 [1] | IC50 [6] | Ki [6] | IC50 [7] | Ki [7] | IC50 [2] | IC50 [3] | IC50 [8] | Ki [8] | IC50 [4]

CC1=C(/C=C/C(C)=C/C=C/C(C)=C/C(=O)O)C(C)(C)CCC1 [TRETINOIN]
Not Active: IC50 [5] | Ki [5] | IC50 [1] | IC50 [6] | Ki [6] | IC50 [7] | Ki [7] | IC50 [2] | IC50 [3] | IC50 [8] | Ki [8] | IC50 [4]

Nc1nc(N)c2nc(-c3ccccc3)c(N)nc2n1
Not Active: IC50 [5] | Ki [5] | IC50 [1] | IC50 [6] | Ki [6] | IC50 [7] | Ki [7] | IC50 [2] | IC50 [3] | IC50 [8] | Ki [8] | IC50 [4]

CN1C(=O)OC(C)(C)C1=O [TRIMETHADIONE]
Not Active: IC50 [5] | Ki [5] | IC50 [1] | IC50 [6] | Ki [6] | IC50 [7] | Ki [7] | IC50 [2] | IC50 [3] | IC50 [8] | Ki [8] | IC50 [4]

Cc1ccc(S(=O)(=O)NC(=O)NN2CCCCCC2)cc1 [TOLAZAMIDE]
Not Active: IC50 [5] | Ki [5] | IC50 [1] | IC50 [6] | Ki [6] | IC50 [7] | Ki [7] | IC50 [2] | IC50 [3] | IC50 [8] | Ki [8] | IC50 [4]

O=C(O)c1cc(/N=N/c2ccc(S(=O)(=O)Nc3ccccn3)cc2)ccc1O [SULFASALAZINE]
Not Active: IC50 [5] | Ki [5] | IC50 [1] | IC50 [6] | Ki [6] | IC50 [7] | Ki [7] | IC50 [2] | IC50 [3] | IC50 [8] | Ki [8] | IC50 [4]

CCN(CC)C(=S)SSC(=S)N(CC)CC
Not Active: IC50 [5] | Ki [5] | IC50 [1] | IC50 [6] | Ki [6] | IC50 [7] | Ki [7] | IC50 [2] | IC50 [3] | IC50 [8] | Ki [8] | IC50 [4]

CS(=O)(=O)c1ccc(C2=C(c3ccccc3)C(=O)OC2)cc1 [ROFECOXIB]
Not Active: IC50 [5] | Ki [5] | IC50 [1] | IC50 [6] | Ki [6] | IC50 [7] | Ki [7] | IC50 [2] | IC50 [3] | IC50 [8] | Ki [8] | IC50 [4]

Cc1cnc(NC(=O)C2=C(O)c3ccccc3S(=O)(=O)N2C)s1 [MELOXICAM]
Not Active: IC50 [5] | Ki [5] | IC50 [1] | IC50 [6] | Ki [6] | IC50 [7] | Ki [7] | IC50 [2] | IC50 [3] | IC50 [8] | Ki [8] | IC50 [4]

C1CCN2C[C@@H]3C[C@@H](CN4CCCC[C@@H]34)[C@H]2C1 [SPARTEINE]
Not Active: IC50 [5] | Ki [5] | IC50 [1] | IC50 [6] | Ki [6] | IC50 [7] | Ki [7] | IC50 [2] | IC50 [3] | IC50 [8] | Ki [8] | IC50 [4]

CO[C@@H]1[C@@H](OC)[C@H](C)[C@@](O)(CC(=O)O)O[C@H]1[C@H](C)[C@H]1O[C@@]2(CC[C@@](C)([C@H]3CC[C@@](C)([C@@H]4O[C@@H]([C@H]5O[C@](C)(O)[C@H](C)C[C@@H]5C)C[C@@H]4O[C@@H]4C[C@H](OC)[C@@H](OC)[C@H](C)O4)O3)O2)C[C@H](O)[C@H]1C.N [MADURAMICIN]
Not Active: IC50 [5] | Ki [5] | IC50 [1] | IC50 [6] | Ki [6] | IC50 [7] | Ki [7] | IC50 [2] | IC50 [3] | IC50 [8] | Ki [8] | IC50 [4]

CC[C@@]1(O)C(=O)OCc2c1cc1n(c2=O)Cc2cc3c(CN(C)C)c(O)ccc3nc2-1 [TOPOTECAN]
Not Active: IC50 [5] | Ki [5] | IC50 [1] | IC50 [6] | Ki [6] | IC50 [7] | Ki [7] | IC50 [2] | IC50 [3] | IC50 [8] | Ki [8] | IC50 [4]

C#C[C@]1(O)CC[C@H]2[C@@H]3[C@H](C)CC4=C(CCC(=O)C4)[C@H]3CC[C@@]21C [TIBOLONE]
Not Active: IC50 [5] | Ki [5] | IC50 [1] | IC50 [6] | Ki [6] | IC50 [7] | Ki [7] | IC50 [2] | IC50 [3] | IC50 [8] | Ki [8] | IC50 [4]

C[N+]1(C)[C@@H]2C[C@@H](OC(=O)[C@H](CO)c3ccccc3)C[C@H]1[C@@H]1O[C@@H]12.[Br-] [METHSCOPOLAMINE BROMIDE]
Not Active: IC50 [5] | Ki [5] | IC50 [1] | IC50 [6] | Ki [6] | IC50 [7] | Ki [7] | IC50 [2] | IC50 [3] | IC50 [8] | Ki [8] | IC50 [4]

CCN1CCCC1CNC(=O)c1cc(S(N)(=O)=O)ccc1OC (configuration not stated) [SULPIRIDE]
Not Active: IC50 [5] | Ki [5] | IC50 [6] | Ki [6] | IC50 [7] | Ki [7] | IC50 [2] | IC50 [3] | IC50 [8] | Ki [8] | IC50 [4]

CNCCCC12CCC(c3ccccc31)c1ccccc12 [MAPROTILINE]
Not Active: IC50 [1] | IC50 [2] | IC50 [3] | IC50 [4]

CN(C)CCC=C1c2ccccc2COc2ccccc21 [DOXEPIN]
Not Active: IC50 [1] | IC50 [2] | IC50 [3] | IC50 [4]

Cc1ccnc(NS(=O)(=O)c2ccc(N)cc2)n1 [SULFAMERAZINE]
Not Active: IC50 [5] | Ki [5] | IC50 [6] | Ki [6] | IC50 [7] | Ki [7] | IC50 [2] | IC50 [3] | IC50 [8] | Ki [8] | IC50 [4]
